Data: patent US20090203716A1, “Pyrimidine low molecular weight ligands for modulating hormone receptors” (The Government of the United States of America as …, priority 2006, published 2009)

Tests used:
Type in all cases: cell-based
TSHR mutant Y7.42A = biological target: T1, TSHR mutant Y7.42A (Homo sapiens, UniProt P16473, Y667A); assay: cAMP production in HEK-EM 293 cells transiently expressing TSHR mutant Y7.42A; details: 30 μM compound
T1 construct: expressed in transfected cells; host or cells: HEK-EM 293 (transient, FuGENE 6)
T1 sequence (P16473 21-764 Y667A): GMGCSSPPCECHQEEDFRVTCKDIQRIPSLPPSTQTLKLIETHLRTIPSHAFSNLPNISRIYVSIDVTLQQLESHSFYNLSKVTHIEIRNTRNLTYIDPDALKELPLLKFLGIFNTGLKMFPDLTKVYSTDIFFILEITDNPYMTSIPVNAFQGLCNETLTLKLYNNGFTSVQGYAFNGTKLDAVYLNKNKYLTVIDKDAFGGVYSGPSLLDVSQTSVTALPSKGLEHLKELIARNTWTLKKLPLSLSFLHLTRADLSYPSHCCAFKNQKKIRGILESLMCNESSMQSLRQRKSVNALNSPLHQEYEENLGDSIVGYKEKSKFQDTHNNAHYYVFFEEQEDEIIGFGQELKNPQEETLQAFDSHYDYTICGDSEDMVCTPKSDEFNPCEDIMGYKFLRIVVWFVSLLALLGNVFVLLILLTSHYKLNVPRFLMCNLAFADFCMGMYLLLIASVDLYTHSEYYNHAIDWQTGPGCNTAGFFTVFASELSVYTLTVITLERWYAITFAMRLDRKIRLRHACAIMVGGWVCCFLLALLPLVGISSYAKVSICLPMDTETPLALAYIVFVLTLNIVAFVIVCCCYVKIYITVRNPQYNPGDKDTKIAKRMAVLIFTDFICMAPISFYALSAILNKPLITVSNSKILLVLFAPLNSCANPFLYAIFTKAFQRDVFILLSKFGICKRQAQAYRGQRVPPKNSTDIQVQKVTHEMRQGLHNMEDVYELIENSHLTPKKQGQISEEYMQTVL
Description: HEK-EM 293 cells were grown in Dulbecco's modified Eagle's Medium (DMEM) supplemented with 10% fetal bovine serum, 100 units/ml penicillin and 10 μg/ml streptomycin (Life Technologies Inc.) at 37° C. in a humidified 5% CO2 incubator. Cells were transiently transfected with wild type TSHR and mutant receptors in 24-well plates (7.5×10^4 cells per well) with 0.4 μg DNA/well using FuGENE™ 6 reagent (Roche) according to the manufacturer's protocol.
The M9 mutant is described in Jaschke et al., J Biol Chem 281:9841-9844. The Y7.42A mutant was introduced into hTSHR-pcDNA3.1 via the QuickChange XL Site-Directed Mutagenesis kit (Stratagene). The construct was verified by sequencing (MWG Biotech).
Transiently transfected cells were cultured for 48 hours before the cAMP assay. HEK-EM 293 cells stably expressing TSHR, LHCGR or FSHR were seeded into 24-well plates with a density of 2.2×10^5 cells/well 24 hours before the cAMP assay. […] The intracellular cAMP content was determined with the cAMP Biotrak Enzymeimmunoassay (EIA) System (GE Healthcare). Data were analyzed using GraphPad Prism 4 for Windows. Receptor expression was measured as described in Jaschke et al., J Biol Chem 281:9841-9844.

human TSH receptor = biological target: T2, human TSH receptor (Homo sapiens, UniProt P16473); assay: intracellular cAMP accumulation, agonism at TSHR stably expressed in HEK EM 293 cells; details: cAMP
T2 construct: expressed in transfected cells
T2 sequence (P16473 21-764): as the sequence (P16473 21-764 Y667A) above, with A647Y counted along it
Description: With reference to Table 1, exemplary disclosed compounds were evaluated against human TSH receptor and human LHCG receptor that were stably expressed in HEK 293 EM cells as previously described by Libert et al. (Biochem. Biophys. Res. Commun. 1989, 165, 1250-1255); and by Schulz et al. (Mol. Endocrinol. 1999, 13, 181-190). Cell surface expression of TSH receptor and LHCG receptor were determined via FACS analysis (Kleinau, G.; Jäschke, H.; Neumann, S.; Lättig, S.; Paschke, R.; Krause, G. J. Biol. Chem. 2004, 279, 51590-51600). Agonism of compounds 3-20 were determined via measurement of intracellular cyclic AMP accumulation. […] For example, […] certain compounds disclosed herein exerted no discernible effect on the FSH receptor.
Cells were cultured for 48 h in 24-well plates before incubation for 1 h in serum-free DMEM containing 1 mM 3-isobutyl-1-methylxanthine (IBMX) (SIGMA) and bovine TSH (1.8 μM) (SIGMA) or human LH (1000 ng/ml) (Dr. A. Parlow, NIDDK National Hormone and Pituitary Program) or compounds 3-19 (0-100 μM) in a humidified 5% CO2 incubator. Following aspiration of the medium after incubation with compounds, cells were lysed using lysis buffer 1 of the cAMP Biotrak Enzymeimmunoassay (EIA) System (Amersham Biosciences). The cAMP content of the cell lysate was determined using the manufacturer's protocol. The efficacy of receptor activation by small molecule modulators is expressed as % of maximum response of LHCG receptor or TSH receptor to LH or TSH, respectively. The potency (EC50) was obtained from dose response curves (0-100 μM compound) by data analysis with GraphPad Prism 4 for Windows. With reference to FIG. 1, intracellular cAMP production was determined in response to 100 μM of each compound and is expressed as % of maximum response of TSHR/LHCGR to TSH (100 mU/ml)/LH (1000 ng/ml). The data are presented as mean±SEM of two independent experiments, each performed in duplicate.
Transiently transfected cells were cultured for 48 hours before the cAMP assay. HEK-EM 293 cells stably expressing TSHR, LHCGR or FSHR were seeded into 24-well plates with a density of 2.2×10^5 cells/well 24 hours before the cAMP assay. After removal of growth medium, cells were incubated for 1 hour in HBSS (Cellgro) with 10 mM HEPES (Cellgro) containing 1 mM 3-isobutyl-1-methylxanthine (IBMX) (Sigma) and the ligand of interest in a humidified 5% CO2 incubator at 37° C. The intracellular cAMP content was determined with the cAMP Biotrak Enzymeimmunoassay (EIA) System (GE Healthcare). Data were analyzed using GraphPad Prism 4 for Windows. Receptor expression was measured as described in Jaschke et al., J Biol Chem 281:9841-9844.

[1] = system: thyroperoxidase (TPO) mRNA expression in human thyrocytes; assay: TPO mRNA expression in primary cultures of human thyrocytes; design: inhibition of TSH-stimulated increase of TPO mRNA expression: dose or concentration left out as unconfirmed
Description: Thyroid tissue samples were obtained through the NIH Clinical Center during surgery for unrelated reasons. Patients provided informed consent on an IRB approved protocol and materials were received anonymously via approval of research activity through the Office of Human Subjects Research. The specimens were maintained in HBSS on ice and isolation of cells was initiated within 4 hours after surgery. All preparations were performed under sterile conditions. Tissue samples were minced into small pieces by fine surgical forceps and scissors in a 10 cm dish with a small volume of HBSS. Tissue pieces were transferred to a 15 ml tube (Falcon) and washed at least 3 times with HBSS. Afterward, tissue pieces were incubated with HBSS containing 3 mg/ml Collagenase Type IV (Gibco). Enzymatic digestion proceeded for 30 minutes or longer with constant shaking in a water bath at 37° C. until a suspension of isolated cells was obtained. After centrifugation for 5 minutes at 1000 rpm, the supernatant was removed and cells were resuspended in 10 ml DMEM with 10% FBS. Cells were plated in 10 cm tissue culture dishes and incubated at 37° C. in a humidified 5% CO2 incubator. After 24 hours, the supernatant containing non-adherent cells was removed. The primary cultures of thyroid cells formed a confluent monolayer within 5-7 days. […]

Compound: COC/C=C/c1ccc(-c2nc(SC)nc3sc(C(=O)NC(C)(C)C)c(N)c23)cc1 [Compound 52]
- cAMP production, fold over TSHR basal activity, Y7.42A (TSHR mutant Y7.42A): 3.2±0.9 fold
- agonist activity at TSHR (human TSH receptor): no agonist activity
- inhibition of TSH-stimulated increase of TPO mRNA expression ([1]; 1 hour pretreatment, 24 hours with TSH, thyrocytes from two donors): inhibited
- inhibition of TsAb-stimulated TPO mRNA expression ([1]; Graves' disease sera 1:50, 10 μM compound, 24 hours): inhibited
